What was measured:
casein kinase 1ε = target: T1, casein kinase 1ε (Homo sapiens, UniProt P49674); assay: Casein Kinase Epsilon 33P-ATP Filter Plate Assay; type: biochemical; settings: phosphorylation of casein, 33P-ATP with 10 μM cold ATP, 2 hours at room temperature; * denotes average of two or more determinations; read-out: CKIε Inhibition IC50
T1 construct: made in house
Protocol: Casein Kinase Epsilon ^33P-ATP Filter Plate Assay for Screening CK1ε Inhibitors Purpose: This assay measures the effect of compounds to inhibit the phosphorylation of the substrate casein by the enzyme casein kinase 1ε using an in vitro ^33P-ATP filtration assay. Compounds are tested at five concentrations in duplicate in order to generate IC50 values or % inhibition at a 10 micromolar concentration that are summarized in Table 4.
Enzyme: • Casein Kinase 1ε final concentration 0.58 mg/ml obtained from fermentation and purification processes as are well known to one skilled in the art. The above are stored as 100 μL aliquots at minus 80° C.
Compounds: • Compounds for testing are supplied as frozen 10 mM compound stock dissolved in 100% DMSO. Assay Conditions:
Final total assay volume per well is equal to 50 μL made up as follows: • 5 μL of diluted compound stock (10, 1, 0.1, 0.01 or 0.001 μM), • 5 μL of dephosphorylated casein final concentration 0.2 μg/μL, • 20 μL of CK1ε final concentration 3 ng/μL, and • 20 μL of γ-^33P-ATP final concentration 0.02 μCi/μL mixed with cold ATP (10 μM final). Methodology: • 1. 500 mL of fresh assay buffer is made: 50 mM Tris pH 7.5, 10 mM MgCl2, 2 mM DTT and 1 mM EGTA • 2. Compounds to be evaluated are obtained as 10 μL of 10 mM stock dissolved in 100% DMSO. Using a Biomek 2000 liquid handling robot, serial dilutions are made to yield 10, 1, 0.1, 0.01 and 0.001 μM final compound dilutions added as 5 μL additions to Falcon U bottom plates. Typically 8 compounds are tested per 96 well plate with column 1 and 12 serving as control wells. A routine screening assay will consist of 32 compounds, which equals 4 assay plates. • 3. Assay plate maps are set up according to the following pattern CKlePlateMap.xls
• 4. Once 5 μL of compound has been added as indicated, 5 μL of dephosphorylated casein (dissolved in distilled H2O)(0.2 μg/μL) and 20 μL CK1ε (3 ng/μL) are added to the appropriate wells. • 5. Finally 20 μL γ-^33P-ATP (0.02 μCi/μL)/10 μM cold ATP are added (equals approximately 2×10^6 CPM per well). • 6. The Falcon U-Bottom assay plate containing the above 50 μL reaction volume is vortexed and then incubated at room temperature for 2 hours. • 7. At the end of 2 hours, the reaction is stopped by the addition of 65 μL of ice cold 2 mM cold ATP (made up in assay buffer) to the assay plates using a Beckman Multimek • 8. At the same time 25 μL 100% ice cold TCA made up in distilled H2O is added to a matching number of Millipore MAPH filter plates. • 9. Using a handheld 8-channel pipettor, 100 μL of the reaction mixture is transferred from the Falcon U-Bottom Plate to the Millipore MAPH filter plates presoaked with TCA. • 10. The Millipore MAPH filter plates are mixed gently and allowed to sit at room temperature for at least 30 minutes to precipitate the proteins. • 11. After 30 minutes the filter plates are placed on a Millipore vacuum manifold and filtered at no more than 8 mm Hg as the MAPH filters tend to “air lock” at higher vacuum settings. • 12. The filter plates are sequentially washed and filtered with 2×150 μL 20% TCA, 2×150 μL 10% TCA and 2×150 μL 5% TCA (total of 6 washes per plate/900 μL per well). • 13. Plates are allowed to dry overnight at room temperature. The next day 40 μL Packard Microscint-20 Scintillation Fluid is added per well using a Titertek Multidrop dispenser; the plates are sealed and counted for 2 minutes/well in a Packard Topcount NXT Scintillation Counter (CPM values/well are captured).
Calculation: • 1. Counts Per Minute (CPM) data is captured and imported into a proprietary data calculation and archiving database (Activity Base by IDBS version 5.0). • 2. Column 1 for each plate reflects total phosphorylation activity of the enzyme in the absence of any inhibiting compound and thus represents 100%. Column 12 reflects any nonspecific phosphorylation/retained radioactivity activity in the absence of inhibiting compound and enzyme. […]

[1] = test system: Mper1-luc Rat-1 fibroblasts (P2C4); assay: Cellular Circadian Assay (Mper1-luc reporter, period lengthening); type: cell-based; settings: effective micromolar concentration that induced a 1 hour lengthening of period
Text: U.S. Pat. No. 6,555,328 B1 discloses screening methods in cells to identify compounds that alter circadian rhythms based on a test compound altering the ability of human casein kinase 1ε and/or human casein kinase 1δ to phosphorylate the human clock proteins hPER1, hPER2 and hPER3. For example, HEK293T cells are co-transfected with hCKIε and Per1 or Per2. For the purpose of evaluating the relevancy of CKIε inhibition and CKIε inhibitors to circadian biology, a high-throughput cellular assay (33rd Annual Meeting, Soc. for Neurosci., Nov. 8-12, 2003, Abstract numbers 284.1, 284.2, and 284.3) was developed in which circadian rhythm could be monitored in a routine manner. The assay consists of Rat-1 fibroblasts stably expressing an Mper1-luc construct, thus enabling the determination of the rhythmic activation of the Mper1 promoter in living cells by repeatedly estimating luciferase activity by monitoring light-output over several days. The repeated measure format of the assay permits accurate and reproducible assessment of the concentration-dependent effects of CKIε inhibitors on circadian rhythm and provides the nexus for relating CKIε inhibition to circadian period alteration.
Cell culture: Mper1-luc Rat-1 fibroblasts (P2C4) cultures were split every 3-4 days (˜10-20% confluence) onto 150 cm^2 vented polystyrene tissue culture flasks (Falcon #35-5001) and maintained in growth media [EMEM (Cellgro #10-010-CV); 10% fetal bovine serum (FBS; Gibco #16000-044); and 50 I.U./mL penicillin-streptomycin (Cellgro #30-001-C1)] at 37° C. and 5% CO2. […] Zeocin-resistant stable transfectants were assessed for reporter expression by supplementing growth media with 100 μM luciferin (Promega #E1603) and assaying luciferase activity on a TopCount scintillation counter (Packard Model #C384V00). Rat-1 clones expressing both Zeocin-resistance and mPer1-driven luciferase activity were synchronized by 50% horse serum [HS (Gibco #16050-122)] serum shock and assessed for circadian reporter activity. […]

T1 sequence (P49674 whole entry): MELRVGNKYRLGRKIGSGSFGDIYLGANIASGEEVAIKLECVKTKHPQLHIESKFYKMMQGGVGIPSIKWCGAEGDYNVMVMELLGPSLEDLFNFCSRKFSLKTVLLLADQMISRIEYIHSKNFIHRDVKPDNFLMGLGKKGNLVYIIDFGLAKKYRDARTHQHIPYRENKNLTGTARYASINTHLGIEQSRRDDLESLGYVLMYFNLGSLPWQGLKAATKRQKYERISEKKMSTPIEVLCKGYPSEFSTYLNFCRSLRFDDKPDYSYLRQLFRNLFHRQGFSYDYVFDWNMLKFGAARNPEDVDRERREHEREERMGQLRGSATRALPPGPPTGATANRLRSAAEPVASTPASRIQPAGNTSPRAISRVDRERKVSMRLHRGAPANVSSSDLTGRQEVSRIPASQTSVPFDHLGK

| melting point | IC50 (casein kinase 1ε) | Compound | Cell Assay ECΔτ+1h [1] |
| --- | --- | --- | --- |
| 197 to 197.5 °C | 3.1 µM | NC(=O)c1[nH]c2ccccc2c1Sc1ccccc1 [Ic, 3-Phenylsulfanyl-1H-indole-2-carboxylic acid amide] | – |
| – | 2.4 µM | NC(=O)c1[nH]c2ccccc2c1Oc1ccccc1F [Io] | – |
| 161 to 162 °C | – | O=C(c1[nH]c2ccccc2c1Sc1ccccc1)N1CCCCC1 [Ix, (3-Phenylsulfanyl-1H-indol-2yl)-piperidin-1-yl-methanone] | – |
| – | > 10 µM | CNC(=O)c1[nH]c2ccccc2c1Sc1ccccc1 [Ij, 3-Phenylsulfanyl-1H-indole-2-carboxylic Acid Methylamide] | – |
| – | 0.89 µM | NC(=O)c1[nH]c2ccccc2c1Oc1ccc(F)cc1 [In] | – |
| – | 0.43 µM | NC(=O)c1[nH]c2ccccc2c1Sc1cccc(F)c1 [If, 3-(3-Fluoro-phenylsulfanyl)-1H-indole-2-carboxylic acid amide] | 1.6 µM |
| 254 to 255 °C | – | O=C(c1[nH]c2ccc(F)cc2c1Sc1ccccc1)N1CCCC1 [Iy, (5-Fluoro-3-phenylsulfanyl-1H-indol-2-yl)-pyrrolidin-1-yl-methanone] | – |
| – | 9.9 µM | NC(=O)c1[nH]c2ccccc2c1OCc1ccccc1 [Iu, 3-Benzyloxy-1H-indole-2-carboxylic acid amide] | – |
| – | > 10 µM | NC(=O)c1[nH]c2ccccc2c1Oc1ccccc1 [Il, 3-Phenoxy-1H-indole-2-carboxylic acid amide] | – |
| 213 to 214 °C | – | O=C(c1[nH]c2ccccc2c1Sc1ccccn1)N1CCCC1 [Iag, [3-(Pyridin-2-ylsulfanyl)-1H-indol-2-yl]-pyrrolidin-1-yl-methanone] | – |
| – | > 10 µM | CNC(=O)c1[nH]c2ccccc2c1Sc1ccccn1 [Ik, 3-(Pyridin-2-ylsulfanyl)-1H-indole-2-carboxylic acid methylamide] | – |
| – | 0.12 µM | NC(=O)c1[nH]c2ccc(Br)cc2c1Sc1ccccc1N [Ig, 3-(2-Amino-phenylsulfanyl)-5-bromo-1H-indole-2-carboxylic acid amide] | 1.6 µM |
| – | 2.8 µM | NC(=O)c1[nH]c2ccccc2c1Oc1ccc(Cl)cc1 [Ip] | – |
| – | > 10 µM | NC(=O)c1[nH]c2ccc(Cl)cc2c1S(=O)(=O)c1ccccc1 [Ia, 3-Benzensulfonyl-5-chloro-1H-indole-2-carboxylic acid amide] | – |
| – | 0.18 µM | COc1ccc2[nH]c(C(N)=O)c(Sc3ccccc3N)c2c1 [Ie, 3-(2-Amino-phenylsulfanyl)-5-methoxy-1H-indole-2-carboxylic acid amide] | >10 µM |
| – | 13.5 µM | COc1c(C(N)=O)[nH]c2ccccc12 [Iq, 3-Methoxy-1H-indole-2-carboxylic acid amide] | – |
| 254 to 255 °C | – | Cc1ccc(Sc2c(C(=O)N3CCCC3)[nH]c3ccc(F)cc23)cc1 [Iw, (5-Fluoro-3-p-tolylsulfanyl-1H-indol-2-yl)-pyrrolidin-1-yl-methanone] | – |
| – | 0.42 µM | NC(=O)c1[nH]c2ccc(Br)cc2c1Sc1ccccc1 [Id, 5-Bromo-3-phenylsulfanyl-1H-indole-2-carboxylic acid amide] | – |
| – | 5.8 µM | COc1ccc(Oc2c(C(N)=O)[nH]c3ccccc23)cc1 [Im] | – |
| 254 to 255 °C | – | O=C(c1[nH]c2ccc(F)cc2c1Sc1ccccn1)N1CCCC1 [Iaf, [5-Fluoro-3-(pyridin-2-ylsulfanyl)-1H-indol-2-yl]-pyrrolidin-1-yl-methanone] | – |
| – | 0.08 µM | NC(=O)c1[nH]c2ccccc2c1Sc1ccccc1N [Ih, 3-(2-Amino-phenylsulfanyl)-1H-indole-2-carboxylic acid amide] | – |
| – | 187 µM | NC(=O)c1[nH]c2ccccc2c1Sc1ccccn1 [Ii, 3-(Pyridin-2-ylsulfanyl)-1H-indole-2-carboxylic acid amide] | – |
| – | 8.7 µM | CCOc1c(C(N)=O)[nH]c2ccccc12 [Ir, 3-Ethoxy-1H-indole-2-carboxylic acid amide] | – |
| – | 2.7 µM | NC(=O)c1[nH]c2ccccc2c1S(=O)(=O)c1ccccc1 [Ib, 3-Benzensulfonyl-1H-indole-2-carboxylic acid amide] | – |
| – | 8.9 µM | CC(C)Oc1c(C(N)=O)[nH]c2ccccc12 [Is, 3-Isopropoxy-1H-indole-2-carboxylic acid amide] | – |

| Compound | melting point | IC50 (casein kinase 1ε) | Cell Assay ECΔτ+1h [1] |
| --- | --- | --- | --- |
| CC(C)(C)Oc1c(C(N)=O)[nH]c2ccccc12 [It, 3-tert-Butoxy-1H-indole-2-carboxylic acid amide] | – | 11.7 µM | – |
